Measurements as given in US7994196B2, “Indazole compound and pharmaceutical use thereof” (Mitsubishi Tanabe Pharma Corporation, priority 2004, dated 2011).

System: MMP-9 production
Experiment: Determination of MMP-9 Production Inhibitory Activity (PMA-stimulated HEC3 cells, gelatin zymography)
Format: cell-based
Conditions: Homo sapiens, Endothelial cell, 24 h, immortalized human vascular endothelial cells HEC3, PMA 10^-7 M stimulation, test substance at 10, 2, 0.4 and 0.08 μM, read-out: IC50 (MMP-9 production inhibitory rate)
Experimental: Immortalized human vascular endothelial cells HEC3 (supplied by Prof. Iijima of Nagoya University) were subcultured in RPMI1640 medium (Sigma Ltd.) containing 10% fetal calf serum.
The HEC3 cells (5×10^4 cells/well) were plated on a 24-well plate, and cultured in RPMI1640 medium containing 10% fetal calf serum for 24 hr. Each well was washed once with serum-free RPMI1640 medium. Then, RPMI1640 medium (250 μl/well) containing 0.05% fetal calf serum was added to each well, and the cells were further cultured for 2 hr.
The supernatant was removed, and the test substances (Example compounds shown in Table 1) diluted to various concentrations were added and incubated for 1 hr in 0.05% serum-containing RPMI1640 medium and the supernatant was removed again. A medium containing a test substance having the same concentration as in the pre-treatment and PMA (10^−7 M), which is a stimulant, was added at 250 μl/well, and the cells were further cultured for 24 hr.
After completion of the culture, water (50 μl) and 25 μl of SDS buffer (240 mM Tris-HCl (pH 6.8), 8% SDS, 40% glycerol) were added to the culture supernatant (25 μl), and the mixture (10 μl) was electrophoresed on a 7.5% polyacrylamide gel containing 0.1% gelatin.
After the electrophoresis, the gel was washed with Tris-HCl buffer (pH 7.5) containing 0.5% Triton X-100 (Sigma Ltd.) for 1 hr. The gel was immersed in an activation buffer (150 mM NaCl, 50 mM Tris-HCl (pH 7.5), 10 mM CaCl2) at 37° C. for 18 hr to activate MMP-9, and then stained with CBB. The obtained MMP-9 band was converted to numerical values by a densitometer (ATTO. Ltd.).
The MMP-9 production inhibitory rate by the test substance was calculated by the following equation. MMP-9 production inhibitory rate=100−100×{(test substance addition value−non-stimulation value)/(PMA stimulation value−non-stimulation value)}
The MMP-9 production inhibitory rates of the test substance at 10, 2, 0.4 and 0.08 μM were calculated, and IC50 value of the each test substance was determined using an analysis soft (RegExcel).

Row | SMILES | IC50 [nM]
1 | Cc1c(Cl)cccc1C1(O)CCN(C(=O)Nc2n[nH]c3ccccc23)CC1 [Ex. 131, 4-(3-chloro-2-methylphenyl)-4-hydroxy-1-piperidinecarboxylic acid (1H-indazol-3-yl)amide] | 440
2 | Cc1ccc(C2(O)CCN(C(=O)Nc3n[nH]c4ccccc34)CC2)cc1Cl [Ex. 132, 4-(3-chloro-4-methylphenyl)-4-hydroxy-1-piperidinecarboxylic acid (1H-indazol-3-yl)amide] | 390
3 | Cc1c(F)cccc1C1(O)CCN(C(=O)Nc2n[nH]c3ccccc23)CC1 [Ex. 134, 4-(3-fluoro-2-methylphenyl)-4-hydroxy-1-piperidinecarboxylic acid (1H-indazol-3-yl)amide] | 680
4 | Cc1ccc(F)cc1C1(O)CCN(C(=O)Nc2n[nH]c3ccccc23)CC1 [Ex. 135, 4-(5-fluoro-2-methylphenyl)-4-hydroxy-1-piperidinecarboxylic acid (1H-indazol-3-yl)amide] | 490
5 | Cc1cc(C2(O)CCN(C(=O)Nc3n[nH]c4ccccc34)CC2)ccc1F [Ex. 136, 4-(4-fluoro-3-methylphenyl)-4-hydroxy-1-piperidinecarboxylic acid (1H-indazol-3-yl)amide] | 410
6 | Cc1cc(F)cc(C2(O)CCN(C(=O)Nc3n[nH]c4ccccc34)CC2)c1 [Ex. 138, 4-(3-fluoro-5-methylphenyl)-4-hydroxy-1-piperidinecarboxylic acid (1H-indazol-3-yl)amide] | 100
7 | Cc1ccc(C)c(C2(O)CCN(C(=O)Nc3n[nH]c4ccccc34)CC2)c1 [Ex. 139, 4-(2,5-dimethylphenyl)-4-hydroxy-1-piperidinecarboxylic acid (1H-indazol-3-yl)amide] | 450
8 | Cc1c(C(F)(F)F)cccc1C1(O)CCN(C(=O)Nc2n[nH]c3ccccc23)CC1 [Ex. 140, 4-hydroxy-4-[2-methyl-3-(trifluoromethyl)phenyl]-1-piperidinecarboxylic acid (1H-indazol-3-yl)amide] | 620
9 | Cc1ccc(C(F)(F)F)cc1C1(O)CCN(C(=O)Nc2n[nH]c3ccccc23)CC1 [Ex. 141, 4-hydroxy-4-[2-methyl-5-(trifluoromethyl)phenyl]-1-piperidinecarboxylic acid (1H-indazol-3-yl)amide] | 320
10 | Cc1ccc(C2(O)CCN(C(=O)Nc3n[nH]c4ccccc34)CC2)cc1C [Ex. 142, 4-(3,4-dimethylphenyl)-4-hydroxy-1-piperidinecarboxylic acid (1H-indazol-3-yl)amide] | 400
11 | Cc1cc(C)cc(C2(O)CCN(C(=O)Nc3n[nH]c4ccccc34)CC2)c1 [Ex. 143, 4-(3,5-dimethylphenyl)-4-hydroxy-1-piperidinecarboxylic acid (1H-indazol-3-yl)amide] | 280
12 | Cc1cccc(C2(O)CCN(C(=O)Nc3n[nH]c4ccccc34)CC2)c1C [Ex. 144, 4-(2,3-dimethylphenyl)-4-hydroxy-1-piperidinecarboxylic acid (1H-indazol-3-yl)amide] | 650
